Consider 16 molecules from ChEMBL document CHEMBL1201862, “PubChem BioAssay data set” (2004).

Molecules are shown by their SMILES.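 Cultured in 96-well plates, cells were exposed to test compound for 48 hours across five concentrations. GI50 is the concentration that inhibits growth by half.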 Active and inactive are the calls of the source. No stated cut-off is given here; in the data, active = GI50 up to about 1.1 µM and inactive = higher. Where only a bound is given, the exact number is not on record here.

Assay in all cases: inhibition of tumour cell growth, NCI panel, 48 h
Experiment [1] relates to EKVX.
Experiment [2] concerns M14.
The subject of experiment [3] is MOLT-4.
In experiment [4] the test system is NCI-H23.
Experiment [5] concerns NCI-H522.
For experiment [6], the system named is OVCAR-3.
Experiment [7] deals with RPMI-8226.
Experiment [8] relates to SN12C.
Experiment [9] deals with SR.
In experiment [10] the test system is UACC-62.
The test system of experiment [11] is CAKI-1.
Experiment [12] concerns NCI-H226.
Experiment [13] relates to SK-OV-3.
Experiment [14] deals with UACC-257.
Experiment [15] deals with A498.

`O=C1CCC(=O)N1Cc1ccccc1/N=[N+](\[O-])c1ccccc1CN1C(=O)CCC1=O`: the GI50 in experiment [1], in experiment [2], in experiment [3], in experiment [4], in [5] and in experiment [6] was > 100 µM (inactive) throughout. In addition, the GI50 in [7], in experiment [8], in [9] and in experiment [10] was > 100 µM (inactive) each time.
For `O=[N+]([O-])c1cc(Cl)ccc1S(=O)(=O)c1ccc(Cl)cc1[N+](=O)[O-]`, the GI50 in experiment [11] was 19.7 µM (inactive); in experiment [2], 16.7 µM (inactive); in experiment [3], 25 µM (inactive); in experiment [12], 12.4 µM (inactive); in experiment [4], 15.2 µM (inactive); in [5], 16.1 µM (inactive). In addition, the GI50 in experiment [6] is 17.3 µM (inactive); in [7] it was 29.6 µM (inactive); in experiment [13], 15.8 µM (inactive); in experiment [8], 15.7 µM (inactive); in experiment [9], 4.19 µM (inactive); in experiment [14], 13.5 µM (inactive). Further, in experiment [10], the GI50 was 16.9 µM (inactive).
As to `C=CCCC(O)c1cc(C)c(O)c(C)c1` (stereo unspecified), the GI50 in [15], in [1], in [2], in experiment [3], in [12] and in experiment [4] was > 100 µM (inactive) throughout. Besides, the GI50 in experiment [5], in experiment [6], in experiment [7], in [13], in experiment [8] and in experiment [14] was > 100 µM (inactive) each time. Also, the GI50 in [10] is > 100 µM (inactive).
As for `CSc1nc(C)cc(=O)n1C1OC(COC(C)=O)C(OC(C)=O)C(OC(C)=O)C1OC(C)=O` (stereo unspecified), the GI50 in [15], in experiment [1], in [2], in experiment [3], in experiment [12] and in experiment [4] was > 100 µM (inactive) throughout. In addition, the GI50 in experiment [5], in [6], in experiment [7], in experiment [13], in experiment [8] and in [9] was > 100 µM (inactive) throughout. Also, the GI50 in [14] and in experiment [10] was > 100 µM (inactive) throughout.
As for `O=C(CCC(=O)Nc1ccc(Cl)c(Cl)c1)CC(=O)c1ccc(F)cc1`, the GI50 in experiment [11], in experiment [1], in experiment [2], in experiment [3], in [12] and in [4] was > 100 µM (inactive) each time. Further, the GI50 in [6] was > 100 µM (inactive); in [13], > 100 µM (inactive); in [8], > 100 µM (inactive); in experiment [9], > 100 µM (inactive); in [14], > 100 µM (inactive); in experiment [10], 89.3 µM (inactive).
Regarding `COc1ccc(C[P+]2(c3ccccc3)CCCCC2)cc1.O=[N+]([O-])c1ccc(C[P+]2(c3ccccc3)CCCCC2)cc1.[O-][Cl+3]([O-])([O-])[O-].[O-][Cl+3]([O-])([O-])[O-]`, the GI50 was > 100 µM (inactive) in experiment [15]; > 100 µM (inactive) in experiment [11]; > 100 µM (inactive) in experiment [1]; 66.2 µM (inactive) in [2]; 63.8 µM (inactive) in [3]; 66.8 µM (inactive) in experiment [4]. Also, the GI50 in [6] was 41 µM (inactive); in experiment [7], 24.9 µM (inactive); in experiment [13], > 100 µM (inactive); in experiment [8], 70 µM (inactive); in experiment [14] it was 29.6 µM (inactive); in experiment [10], 39.2 µM (inactive).
On to `Cc1nnc(N/N=C(/C(=O)C(C#N)c2ccc(Cl)cc2)C(C#N)c2ccc(Cl)cc2)n1N` (stereo unspecified), for which the GI50 in experiment [11] is 20.8 µM (inactive); in [1] it was > 10 µM (inactive); in [2] it was 20.7 µM (inactive); in experiment [3] it was 31.7 µM (inactive); in experiment [12], 16.1 µM (inactive); in [4], 17.8 µM (inactive). The GI50 in experiment [5] was 16.6 µM (inactive); in [6], 21.5 µM (inactive); in experiment [7] it was 16.5 µM (inactive); in experiment [8], 19.3 µM (inactive); in [14], 17.4 µM (inactive).
Take `Clc1ccc2c(c1)C1C(CO2)C(c2ccccc2)=NN1c1ccccc1` (stereo unspecified): the GI50 is > 100 µM (inactive) in experiment [15]; 11.8 µM (inactive) in experiment [1]; 22 µM (inactive) in experiment [3]; 33.7 µM (inactive) in experiment [4]; 23 µM (inactive) in experiment [6]; 12.4 µM (inactive) in [7]. Further, the GI50 in [13] was > 100 µM (inactive); in experiment [14], 49.7 µM (inactive).
As to `CCCCCCCCCCCCCCCC(=O)OCC1OC(n2cc(F)c(=O)[nH]c2=O)C(NC(=O)OCc2ccccc2)C(O)C1O` (stereo unspecified), the GI50 in experiment [15] was 18.8 µM (inactive); in experiment [11], 16.3 µM (inactive); in experiment [1], 22 µM (inactive); in [2], 17 µM (inactive); in [3], 18.2 µM (inactive); in experiment [4], 18.5 µM (inactive). Besides, the GI50 in [6] is 16.1 µM (inactive); in experiment [7], 15.7 µM (inactive); in experiment [13], 24.1 µM (inactive); in [8], 19.9 µM (inactive); in [10], 17.1 µM (inactive).
As to `CC1(C)NC(=O)N(CCCCCCN2C(=O)NC(C)(C)C2=O)C1=O`, the GI50 in experiment [15], in experiment [11], in experiment [1], in experiment [2], in [3] and in experiment [12] was > 100 µM (inactive) in each case. Also, the GI50 in experiment [4], in experiment [5], in [7], in experiment [13], in [8] and in experiment [14] was > 100 µM (inactive) in each case. Besides, the GI50 in [10] was > 100 µM (inactive).
As for `NCCOCCOCC(=O)O`, the GI50 in experiment [11], in experiment [1], in [3], in [12], in experiment [4] and in experiment [5] was > 100 µM (inactive) each time. In addition, the GI50 in experiment [6], in [7], in [13], in [8], in experiment [9] and in [14] was > 100 µM (inactive) each time. Also, in experiment [10], the GI50 is > 100 µM (inactive).
As for `O=C1C2Cc3ccccc3CN2C(=O)N1CCN1CCCC1` (stereo unspecified), the GI50 is > 100 µM (inactive) in experiment [15]; 64.1 µM (inactive) in experiment [11]; > 100 µM (inactive) in experiment [2]; > 100 µM (inactive) in [3]; > 100 µM (inactive) in experiment [12]; > 100 µM (inactive) in experiment [4]. Further, the GI50 in experiment [5], in [6], in [7], in experiment [8] and in experiment [10] was > 100 µM (inactive) each time.
`O=c1/c(=C/c2ccc3c(c2)OCO3)sc2nnc(-c3ccco3)n12`: the GI50 in [15], in experiment [11], in experiment [1], in experiment [2], in experiment [3] and in experiment [12] was > 100 µM (inactive) throughout. Besides, the GI50 in [4], in experiment [5], in experiment [6], in experiment [7], in experiment [13] and in experiment [8] was > 100 µM (inactive) throughout. For the same molecule, the values for the GI50 in experiment [14] and in experiment [10] were 15.3 µM (inactive) and > 100 µM (inactive), respectively.
On to `COc1cc(/C=C/C(=N\NC(=O)c2ccccc2)c2sc(Nc3ccc(Cl)c(Cl)c3)nc2C)ccc1O`, for which the GI50 is 36.4 µM (inactive) in experiment [11]; 29.6 µM (inactive) in experiment [1]; 31 µM (inactive) in [2]; 20.7 µM (inactive) in [3]; 20.5 µM (inactive) in experiment [12]; 25.7 µM (inactive) in experiment [4]. The GI50 is 17 µM (inactive) in experiment [5]; 30.3 µM (inactive) in [6]; 70.3 µM (inactive) in [13]; 33 µM (inactive) in experiment [8]; 22.3 µM (inactive) in experiment [9]; 29.6 µM (inactive) in experiment [14]. Further, in experiment [10], the GI50 is 7.59 µM (inactive).
`C=C1C2C[C@@H]3OC4CC5O[C@]6(CC5OC4C(C)C3OC(=O)CC3CC[C@@H]4OC5C7OC8C[C@](CCC9CC(=C)[C@H](CCC(C[C@H]1C)O2)O9)(OC7C4O3)O[C@@H]85)C[C@@H]1O[C@@]2(CC(C)[C@@H]3OC(CC(=O)CCO)C(O)C[C@@H]3O2)CC(C)[C@@H]1O6` (stereo partly specified): the GI50 in experiment [11], in [2], in [3], in experiment [12], in experiment [4] and in [5] was < 0.001 µM (active) in each case. Also, the GI50 in experiment [6], in experiment [13], in experiment [8], in experiment [9], in experiment [14] and in experiment [10] was < 0.001 µM (active) throughout.
As for `O=C(CO)CC(=O)C(=O)Nc1ccccc1`, the GI50 in experiment [1], in experiment [2], in experiment [3], in experiment [12], in experiment [4] and in experiment [6] was > 100 µM (inactive) each time. In addition, the GI50 in [13], in [8], in experiment [9], in [14] and in [10] was > 100 µM (inactive) in each case.
